Assay [1] deals with Vibrio harveyi BB886. Briefly: Bioluminescence assay of quorum-sensing antagonistic ability with reporter strain Vibrio harveyi BB886. The class given is cell-based. As to conditions: 2 hours. The method, then: Quorum-sensing antagonistic ability of 2-(phenylcarbonothioylthio) acetyl homoserine lactone as described in Formula 8 was evaluated using Vibrio harveyi strain BB886 which responds to the AI-1, i.e., N-(3-hydroxybutanoyl)-1-homoserine lactone (3-OH—C4-HSL) as reporter strain. Vibrio harveyi strain BB886 was grown in LBS medium (10 g/L tryptone, 5 g/L yeast extract, 20 g/L NaCl) at 30° C. For the bioluminescence assay, an overnight culture was diluted 100-fold in a sterile AI bioassay (AB) medium (300 mM NaCl, 50 mM MgSO4, 0.2% (w/v) vitamin-free casamino acid, 10 mM potassium phosphate, 1 mM 1-arginine, 1% glycerol; pH 7.5).
After vaporizing chloroform in 4 test tubes at 30° C. for 2 hours, 4.0 mL of the diluted reporter strain culture was added to No. 1˜No. 4 test tubes and incubated at 30° C. Luminescence measurements were performed after 2 hours of incubation using a luminescence meter (Thermo Electron Co.). Bacterial cell density was measured by optical densities at 600 nm (OD600) using a UV spectrophotometer (HP8452A, H.P.). The antagonist activities of 2-(phenylcarbonothioylthio) acetyl homoserine lactone were expressed as a specific luminescence; relative light units/OD600. […]

In assay [2] the test system is P. aeruginosa. Kind of assay: Microscopy of P. aeruginosa biofilm grown on specimens for 48 hours. The class given is cell-based, Pseudomonas aeruginosa. The conditions noted are these: biofilm grown 48 hours. The method, then: Specimens were set in nutrient flasks containing compounds according to the first exemplary embodiment 1, comparative examples 1 and 2. Biofilm was grown on the specimens for 48 hours. The specimen were examined using microscope. Furthermore, specimens were set in nutrient flasks containing compounds according to exemplary embodiment 6 and comparative example 2. Biofilm on the specimens was grown for 48 hours. The specimens were examined using a microscope.

In assay [3] the test system is P. aeruginosa. Kind of assay: Inhibiting ability against biofilm formation: count of adhesive P. aeruginosa on specimen surface after 4 hours. The class given is cell-based, Pseudomonas aeruginosa. The conditions noted are these: 10 μmol/L, table shows Comparative example 1 (distilled water) = 100. Here is the method:
Inhibiting ability against biofilm formation of quorum-sensing antagonist prepared according to exemplary embodiments 1-7 was evaluated.
Specimen was set in nutrient flask containing 10 μmol/L of quorum-sensing antagonist prepared according to exemplary embodiments 1-7 and P. aeruginosa which has strong adhesive character on surface. Numbers of adhesive P. aeruginosa on surface were counted after 4 hours. Distilled water was poured into nutrient flask instead of quorum-sensing antagonist as a comparison example 1. Numbers of adhesive P. aeruginosa on surface were counted after 4 hours. […] Numbers of adhesive P. aeruginosa on surface were counted after 4 hours. […]

In assay [4] the test system is Agrobacterium tumefaciens A136(pTiA136, pCF218, pCF372). Briefly: LacZ luminescence assay of quorum-sensing antagonistic ability with reporter strain A. tumefaciens A136. As to conditions: 0.5 μM autoinducer 3-oxo-C8-HSL plus 5 μM of compound. The class given is cell-based. The method, then: A. tumefaciens A136 (pTiA136, pCF218, and pCF372) was cultured in Luria-Bertani (LB) media with 50 μg/mL spectinomycin and 4.5 μg/mL tetracycline at 30° C. For the bioassay of 2-(phenylcarbonothioylthio) acetyl homoserine lactone, an overnight culture was diluted at 1:100 and incubated up to an optical density of 0.3 at 600 nm (OD600) at 30° C.
No. 1 solution contained 0.5 μM of N-3-oxootanoyl homoserine lactone.
After vaporizing chloroform in 2 test tubes at 30° C. for 2 hours, 4.0 mL of the diluted reporter strain culture was added to No. 1 and No. 2 test tubes.
LacZ quantative analysis for test tubes described above was performed using Tropix-plus kit (Applied Biosystems, USA). Luminescence measurements were performed after 2 hours of incubation using a luminescence meter (Thermo Electron Co.). Bacterial cell density was measured by optical densities at 600 nm (OD600) using a UV spectrophotometer (HP8452A, H. P.). The antagonist activities of 2-(phenylcarbonothioylthio) acetyl homoserine lactone were expressed as a specific luminescence; relative light units/OD600.

Assay [5] deals with E. coli DH5α co-transformed by pJN105L (LasR expression plasmid) and pSC11 (lasI::lacZ fusion reporter plasmid). Briefly: LacZ bioassay of quorum-sensing antagonistic ability with co-transformed E. coli DH5α (LasR reporter). The class given is cell-based. The conditions noted are these: 1 μM autoinducer 3-oxo-C12-HSL plus 1, 2 or 10 μM of compound. The method, then:
Transformant E. coli was cultured in Luria-Bertani (LB) broth with 10 μg/mL gentamicin and 50 μg/mL ampicillin at 37° C.
For LacZ bioassay of 2-(phenylcarbonothioylthio) acetyl homoserine lactone, an overnight culture was diluted at 1:100 and incubated up to an optical density of 0.3 at 600 nm (OD600) at 30° C. Then, 0.4% arabinose was added.
After vaporizing chloroform in 4 test tubes at 37° C. for 2 hours, 4.0 mL of the diluted reporter strain culture was added to No. 1˜No. 4 test tubes.
LacZ Bioassay for test tubes described above was performed using Tropix-plus kit (Applied Biosystems, USA). Luminescence measurements were performed after 2 hours of incubation using a luminescence meter (Thermo Electron Co.). Bacterial cell density was measured by optical densities at 600 nm (OD600) using a UV spectrophotometer (HP8452A, H.P.).
The antagonist activities of 2-(phenylcarbonothioylthio) acetyl homoserine lactone were expressed as a specific luminescence; relative light units/OD600.

For `C[C@@H](O)CC(=O)N[C@H]1CCOC1=O` [3-hydroxybutanoylhomoserine lactone, N-(3-hydroxybutanoyl)-1-homoserine lactone, reference compound], the “luminescence intensity per V. harveyi (relative light units/OD600)” value in assay [1] (sample containing only 1 μM autoinducer) is given as “relatively high”.

For `CCCCCC(=O)CC(=O)N[C@H]1CCOC1=O` [Autoinducer], the “P. aeruginosa attached on specimen (microscopic image)” value in assay [2] is recorded as “plentifully observed”.

As to `CCCCCCCCCC(=O)CC(=O)N[C@H]1CCOC1=O` [Comparative example 2, N-3-oxododecanoylhomoserinelactone, reference compound], in assay [3], the “% of adhesive P. aeruginosa relative to comparative example” value came to 190%.

Take `O=C(CSc1ccncc1)NC1CCOC1=O` (stereo not shown) [Example 1, N-(2-oxo-tetrahydrofuran-3-yl)-2-(pyridin-4-ylthio)acetamide]: the “% of adhesive P. aeruginosa relative to comparative example” value in assay [3] was 40%.

With `O=C(CSc1ncccn1)NC1CCOC1=O` (stereo not shown) [Example 2], the “% of adhesive P. aeruginosa relative to comparative example” value in assay [3] turned out to be 51%.

Consider `O=C(O)CSCC(=O)NC1CCOC1=O` (stereo not shown) [Example 3, 2-(2-oxo-2-(2-oxo-tetrahydrofuran-3-ylamino)ethylthio)acetic acid], for which, in assay [3], the “% of adhesive P. aeruginosa relative to comparative example” value was determined as 33%.

As to `O=C(O)CSCCSCC(=O)NC1CCOC1=O` (stereo not shown) [Example 4, 2-(2-(2-oxo-2-(2-oxo-tetrahydrofuran-3-ylamino)ethylthio)ethylthio)acetic acid], the “% of adhesive P. aeruginosa relative to comparative example” value in assay [3] is recorded as 13%.

As for `CSCC(=O)NC1CCOC1=O` (stereo not shown) [Example 5, 2-(methylthio)-N-(2-oxo-tetrahydrofuran-3-yl)acetamide], the “% of adhesive P. aeruginosa relative to comparative example” value in assay [3] is recorded as 30%.

With `O=C(CSC(=S)c1ccccc1)NC1CCOC1=O` (stereo not shown) [Example 6, 2-(phenylcarbonothioylthio)acetyl homoserine lactone], in assay [1] (1 μM autoinducer 3-OH-C4-HSL plus 1, 5 or 10 μM of compound), the “luminescence intensity per V. harveyi (relative light units/OD600)” value was “decreased remarkably”. Further, in assay [4], the “luminescence intensity per A. tumefaciens A136 (relative light units/OD600)” value is on record as “decreased remarkably”. Moreover, in assay [5], the “luminescence intensity per co-transformed E. coli DH5α (relative light units/OD600)” value was “decreased remarkably”. The “% of adhesive P. aeruginosa relative to comparative example” value in assay [3] turned out to be 20%.

`O=C(O)CSC(=S)SCC(=O)NC1CCOC1=O` (stereo not shown) [Example 7]: the “% of adhesive P. aeruginosa relative to comparative example” value in assay [3] is 30%.

Values taken from patent publication US8507554B2 (priority 2006, dated 2013).
